Source: patent publication US12534465B2, “5H-pyrrolo[3,2-d]pyrimidine-2,4-diamino compounds and antibody conjugates thereof” (SUTRO BIOPHARMA, INC., priority 2019, dated 2026)

Tests used:
[1] = tested on: MC38-hFolRα tumors; assay: Anti-tumor activity in mice bearing established MC38-hFolRα tumors; type: in vivo, mouse; settings: Day 0 and 4; for tumor growth inhibition (TGI): compared to vehicle control on day 10, p<0.0001
Excerpt: This example evaluates the response of MC38-hFolRα tumors to treatment with Compound 2, a TLR 7 agonist.
(§1) Female C57BL/6 mice at 9-10 weeks of age were anesthetized with isoflurane and implanted subcutaneously into the right hind flank with 1×10^6 MC38-hFolRα (murine colon adenocarcinoma cells engineered to express hFolRα). Randomization and start of treatment was initiated when the average tumor size was approximately 150 mm^3 (designated as Day 0 post-treatment). Animals received intratumoral (IT) injections of Compound 2 on Day 0 and Day 4 (q4d×2). Compound 2 was dissolved in DMSO and dosing solutions were formulated in PBS. Body weight and tumor size were monitored 3×/week. The primary study endpoint was reached when the mean tumor size of the vehicle control group was >1,200 mm^3.

[2] = Body weight / tolerability in MC38-hFolRα tumor-bearing mice; type: in vivo, mouse
Description: as §1

[3] = tested on: cyno PBMCs; assay: Cytokine release (ELISA); type: cell-based, cynomolgus monkey; settings: 48 hr, 10 μg/mL LPS-RS
Description: This example evaluates the ability of Compound 10 to induce cytokine release in human PBMCs, cyno PBMCs and mouse splenocytes. Compound 1 and resiquimod:
Human and cyno PBMCs, mouse splenocytes were isolated as described in previous example. The day of the assay, 300 k of PBMC or splenocytes in 50 μL of culture medium were seeded in 96-well cell culture plates. 50 μl of the test articles (formulated at 2× of starting concentration) were then added into the well. The cell mixtures were co-cultured in the presence of test articles and 10 μg/mL LPS-RS for 24 hr (human PBMCs) or 48 hr (cyno PBMCs and mouse splenocytes). Cytokines released were measured by ELISA using cell culture medium.

[4] = tested on: human PBMCs; assay: Immune cell activation (CD86 expression, flow cytometry); type: cell-based; settings: 48 hr, 10 μg/ml LPS-RS
Excerpt: This example evaluates the ability of Compound 10 to stimulate the activation of different immune cells populations (monocyte, B cell, and DCs), in human PBMCs (Peripheral blood mononuclear cells), cyno PBMCs and mouse splenocytes.
Peripheral blood mononuclear cells (PBMCs) were isolated from fresh collected blood from two healthy human donors and two cynomolgus monkey donors using Leukosep tube and Nycoprep 1.077 buffer according to the manufacture's recommendation. Mouse splenocytes were isolated from C57/BL6 mouse spleens by macerating and straining over a 70 μm cell strainer. Isolated PBMCs or splenocytes were then frozen down using frozen medium. On the day of the assay, PBMCs or splenocytes were thawed and cultured in PBMC culture medium (RPMI supplemented with 10% heat-inactivated fetal bovine serum from Hyclone, 1% Penicillin/Streptomycin and 2 mmol/L-glutamax). 300 k of PBMC or splenocytes in 50 μl of culture medium were seeded in 96-well cell culture plates. 50 μl of the test articles (formulated at 2× of starting concentration) were then added into the well. The cell mixtures were co-cultured in the presence of test articles and 10 μg/ml LPS-RS for 48 hr. The cells were collected by Accutase and then stained with antibodies to different cell population markers and activation markers. Cells were washed, fixed with 2% PFA overnight, and read on the Attune N×T cytometer (Thermo Fisher). Monocyte activation was indicated as increase of CD86 expression on CD14+ cells. B cell activation was indicated as increase of CD86 expression on CD14−/Lin+/HLA-DR+ cells. Dendritic cells (DC) activation was indicated as increase of CD86 expression on CD14−/Lin−/HLA-DR+/CD123+ cells.

Compound	tumor growth inhibition (TGI) ([1]; 0.1 mg/kg intratumoral) [%]	tumor growth inhibition (TGI) ([1]; 0.5 mg/kg intratumoral) [%]	tumor growth inhibition (TGI) ([1]; 2 mg/kg intratumoral) [%]	MC38-hFolRα tumor growth delay ([1]; 0.1-2 mg/kg intratumoral)	tolerability ([2]; 0.1-2 mg/kg intratumoral, Day 0 and 4)	dose-related minimal body weight loss ([2]; FIG. 7A legend, mice bearing MC38-hFolRα tumors)	body weight loss ([2]; doses >0.5 mg/kg intratumoral, Day 0 and 4, recovery by approximately Day 7, FIG. 7A)	IL-6 release ([3]; FIG. 5A)	MCP-1 release ([3]; FIG. 5B)	activation of monocytes ([4]; FIG. 1A)	activation of B cells ([4]; FIG. 1B)	activation of cDCs ([4]; FIG. 1C)	activation of pDCs ([4]; FIG. 1D)
CCCCCNc1nc(N)nc2ccn(Cc3ccc(CN4CC(NC)C4)cc3OC)c12 [Compound 2, 5-(2-methoxy-4-((3-(methylamino)azetidin-1-yl)methyl)benzyl)-N4-pentyl-5H-pyrrolo[3,2-d]pyrimidine-2,4-diamine]	55	61	80	significantly delayed	well tolerated	< 10 % of predose	approximately 5%						
CCCCCNc1nc(N)nc2ccn(Cc3ccc(CN4CC5(CNCCO5)C4)cc3OC)c12 [Compound 10, 5-[[2-methoxy-4-(5-oxa-2,8-diazaspiro[3.5]nonan-2-ylmethyl)phenyl]methyl]-N4-pentyl-pyrrolo[3,2-d]pyrimidine-2,4-diamine]								strong	strong	very potent	very potent	very potent	very potent
